The record followed here is patent US12384775B2, “Pyrimid-2-yl-pyrazole compounds as IRAK inhibitors” (Rigel Pharmaceuticals, Inc., priority 2022, dated 2025).

pEC50: −log10 of the molar value. Counter-ions that a name gives are not always drawn. Like-named read-outs stand apart in the source and are kept apart here.

Data set [1] concerns the target T1, IRAK4 (Homo sapiens, UniProt Q9NWZ3).
T1 construct: purchased Signalchem I12-10G-20
T1 sequence (Q9NWZ3 1-460): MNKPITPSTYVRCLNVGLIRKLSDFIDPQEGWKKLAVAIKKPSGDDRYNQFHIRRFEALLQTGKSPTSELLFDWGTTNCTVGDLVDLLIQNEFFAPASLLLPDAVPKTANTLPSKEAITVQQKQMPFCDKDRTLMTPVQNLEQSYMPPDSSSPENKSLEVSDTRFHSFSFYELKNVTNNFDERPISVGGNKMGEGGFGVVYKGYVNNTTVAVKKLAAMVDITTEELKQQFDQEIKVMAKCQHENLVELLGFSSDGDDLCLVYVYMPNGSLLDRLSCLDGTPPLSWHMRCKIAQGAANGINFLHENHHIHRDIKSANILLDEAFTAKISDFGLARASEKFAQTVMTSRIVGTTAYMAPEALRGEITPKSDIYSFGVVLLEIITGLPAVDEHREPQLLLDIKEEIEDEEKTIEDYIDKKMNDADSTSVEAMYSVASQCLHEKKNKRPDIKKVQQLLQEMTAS
Nature of the data set: IRAK4 ADP-Glo kinase assay. It counts as biochemical. The note with it: read-out: IRAK4 ADP-Glo Kinase, 8 pt EC50. As to the method: The ADP-Glo™ reagents were thawed at ambient temperature. The Kinase Detection Reagent was prepared by mixing kinase detection buffer with the lyophilized kinase detection substrate, and set aside.
A stock volume of 5× Reaction Kinase Buffer was made with a final concentration of 100 mM MgCl2, 200 mM Tris-HCl, and 0.5 mg/ml of BSA, in distilled H2O with a final pH7.4. A 2× working stock volume of Reaction Kinase Buffer was made containing a final concentration of 100 μM DTT.
The components of IRAK4 Enzyme were thawed on ice. Diluted IRAK4 in 1× Kinase Reaction Buffer (diluted from 2× buffer) was prepared at […]. A 250 μM working stock ATP Assay Solution was prepared in 1× Kinase Reaction Buffer (diluted from 2× buffer).
The compound was diluted in DMSO from 250 µM in 4-fold series dilutions for 8 points. Then diluted 1:5 in 2× Reaction Buffer in a 96 well plate. 1.0 μl was transferred to a 384 well plate in duplicate. […] 1 μl of 1 mg/ml stock solution of MBP substrate was added NOTE: MBP can be combined with ATP mix with equal volume and then added at 2 μl/well. Final reaction volume was 5 μl. The plate was centrifuged and the reaction mixture was incubated at room temperature for 60 minutes or at 30° C. for 30 minutes.
The reaction was terminated and the remaining ATP was depleted by adding 5 μl of ADP-Glo™ Reagent. The 384-well plate was centrifuged and then the reaction mixture was incubated for another 40 minutes at ambient temperature.
10 μl of the Kinase Detection Reagent was added. The plate was centrifuged and then the reaction mixture was incubated for another 30 minutes at ambient temperature.
The 384-well reaction plate was read using the WALLAC plate reader (Luminescence 0.1s).
(In general: ADP-Glo turns the ADP formed in a reaction into a luminescent signal.)

The target in data set [2] is IRAK1 (Homo sapiens, UniProt P51617). Nature of the data set: IRAK1 ADP-Glo kinase assay. It counts as biochemical. The note with it: read-out: IRAK1 ADP-Glo Kinase, 8 pt EC50.
Chain of IRAK1 (P51617 whole entry): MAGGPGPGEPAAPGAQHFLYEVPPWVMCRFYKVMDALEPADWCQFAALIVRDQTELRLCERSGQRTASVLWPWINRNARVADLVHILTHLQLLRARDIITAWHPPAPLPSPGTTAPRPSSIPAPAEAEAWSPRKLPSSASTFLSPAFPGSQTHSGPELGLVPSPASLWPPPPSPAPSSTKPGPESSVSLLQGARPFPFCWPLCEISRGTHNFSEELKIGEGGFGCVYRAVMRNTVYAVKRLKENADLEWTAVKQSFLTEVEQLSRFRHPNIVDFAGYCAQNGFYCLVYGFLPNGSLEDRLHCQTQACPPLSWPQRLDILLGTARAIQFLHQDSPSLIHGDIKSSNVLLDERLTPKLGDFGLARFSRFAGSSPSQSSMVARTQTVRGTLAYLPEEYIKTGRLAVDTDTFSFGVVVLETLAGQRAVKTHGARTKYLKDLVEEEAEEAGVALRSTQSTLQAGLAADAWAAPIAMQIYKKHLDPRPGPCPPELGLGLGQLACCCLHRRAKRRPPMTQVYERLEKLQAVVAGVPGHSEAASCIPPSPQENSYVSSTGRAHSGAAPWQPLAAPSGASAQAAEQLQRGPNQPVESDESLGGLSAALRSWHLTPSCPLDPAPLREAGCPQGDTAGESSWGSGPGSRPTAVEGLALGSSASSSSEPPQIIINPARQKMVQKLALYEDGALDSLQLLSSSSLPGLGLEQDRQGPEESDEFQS
For data set [3], the system named is IL23p19 in THP-1 Cells. The experiment in a line: LPS induced IL23p19 in THP-1 cells (IFNγ primed), ELISA. It counts as cell-based. As to conditions: Homo sapiens, THP-1 cells IFNγ primed, LPS 1 μg/mL, 18 h, read-out: IL23-p19 ELISA, THP1-IFNy, LPS, 10 pt EC50. On the procedure: On day 1, 50K/well THP-1 cells were seeded and primed with IFNγ (50 ng/mL) in 384-well plates for about 18 hours in RPMI media with 10% FBS. On day 2, the compound was serially diluted in DMSO from 5 mM in 3-fold dilutions, and then diluted 1:125 in RPMI media with 10% FBS. 50 μL/well 2× compound was added to 50 μL/well THP-1 cells (with IFNγ primed) in duplicate in 384 well tissue culture plates. The cells were pre-incubated with compound for 1 hour at 37° C., 5% CO2 before addition of 10 μL/well 11×LPS to give a final concentration of 1 μg/mL LPS. Day 3, after stimulation for 18 hours at 37° C., 5% CO2, the assay plate was centrifuged and 70 μL/well supernatant was harvested. IL-23p19 protein in 70 μL/well of supernatant was measured by sandwich ELISA, and 25 μl/well Cell Titer Glo reagent was added to the remaining cells to measure compound toxicity.
Maxisorp immuno ELISA plates were pre-coated with 25 μL/well of anti-IL-23p19 capture antibody (2.5 ug/mL) in PBS overnight at room temperature. After washing with 1×PBST, the plates were blocked using 100 μL/well of 1% BSA in PBS for 2 hours at room temperature. The plates were washed three times with 1×PBST and 70 μL/well supernatant were added. The plates were incubated at room temperature for 2 hours with shaking and washed three times with 1×PBST. 25 μL/well of biotin labeled anti-IL-12 (p40/p70) detection antibody (100 ng/mL) in PBS with 1% BSA was added and the plates were incubated at room temperature for 2 hours with shaking. After washing three times with 1× PBST, 25 μL/well of streptavidin-HRP (1:200) in PBS with 1% BSA was added and the plates were incubated at room temperature for 20 minutes with shaking. The plates were washed three times with 1× PBST and 25 μL/well of Super Signal ELISA Pico Chemiluminescent Substrate were added. The plates were read with a luminometer, and the chemiluminescence values were entered into Athena (Rigel) for curve fitting, EC50 calculation, and database storage.
THP-1 cells (100K in 100 μL/well) were primed with 25 ng/mL IFN-γ for 18 hours at 37° C., 5% CO2. Compound was serially diluted in DMSO from 2.5 mM in 4-fold dilutions, and then diluted 1:125 in RPMI 1640 complete media with 10% FBS. 100 μL/well 2× compound was mixed with the 100 μL/well IFN-7 primed THP-1 in 96 well flat-bottom white tissue culture plates. The cells were pre-incubated with compound for 1 hour at 37° C., 5% CO2 and before addition of 10 μL/well 21×LPS to give a final concentration of […] for LPS. The cells were stimulated with LPS for 18 hours at 37° C., 5% CO2. After centrifugation, 100 μL/well supernatant was extracted by using a multichannel pipette. IL-23p19 or TNF-α protein in the supernatant were measured by sandwich ELISA. The remaining IFN-7 primed THP-1 cell pellets were used to perform cell viability assays to determine compound cell toxicity. The plates were read with a luminometer, and the chemiluminescence values were entered into Athena (Rigel) for curve fitting, EC50 calculation, and database storage.
Maxisorp immuno ELISA plates were pre-coated with 100 μL/well of anti-IL-23p19 capture antibody (2.4 μg/mL) in PBS overnight at room temperature. After washing with 1×PBST, the plates were blocked using 300 μL/well of 1% BSA in PBS for 2 hours at room temperature. The plates were washed three times with 1×PBST and 100 μL/well supernatant was added. The plates were incubated at room temperature for 2 hours with shaking. The plates were washed three times with 1×PBST and 100 μL/well of biotin anti-human IL-12 (p40/70) detection antibody (10 ng/mL) in PBS with 0.1% BSA were added. The plates were incubated at room temperature for 2 hours with shaking. The plates were washed three times with 1×PBST and 100 μL/well streptavidin-HRP (1:200) in PBS with 0.1% BSA was added. The plates were incubated at room temperature for 20 minutes with shaking. […]

The nature of data set [4]: Bioavailability of prodrug I-3, rat. It counts as in vivo. As to conditions: measured as amount of parent compound I-1 detected.
Data set [5] can be described thus: Bioavailability of prodrug I-3, dog. It counts as in vivo. The note with it: measured as amount of parent compound I-1 detected.
The nature of data set [6]: Bioavailability of prodrug I-3, mouse. As to conditions: measured as amount of parent compound I-1 detected. It counts as in vivo.
Data set [7] can be described thus: Bioavailability of prodrug I-3, monkey. It counts as in vivo. As to conditions: measured as amount of parent compound I-1 detected.

Take `CCO[C@H]1CC[C@H](n2cc(NC(=O)c3csc(-c4cnn(COP(=O)(O)O)c4)n3)c(-c3ncccn3)n2)CC1` [Compound I-2, (4-(4-((1-((1r,4r)-4-ethoxycyclohexyl)-3-(pyrimidin-2-yl)-1H-pyrazol-4-yl)carbamoyl)thiazol-2-yl)-1H-pyrazol-1-yl)methyl dihydrogen phosphate]: the pEC50 was 7.33 in data set [1], 5.41 in data set [2] and 7.96 in data set [3].
`CCO[C@H]1CC[C@H](n2cc(NC(=O)c3csc(-c4cn[nH]c4)n3)c(-c3ncccn3)n2)CC1` [Compound I-4, N-(1-((1r,4r)-4-ethoxycyclohexyl)-3-(pyrimidin-2-yl)-1H-pyrazol-4-yl)-2-(1H-pyrazol-4-yl)thiazole-4-carboxamide tartaric acid salt]: the pEC50 is 7.73 in data set [1]; 7.55 in data set [2]; 8.60 in data set [3] (THP-1, 18 h).
As for `CCO[C@H]1CC[C@H](n2cc(NC(=O)c3csc(-c4cnn(COP(=O)(O)O)c4)n3)c(-c3ncccn3)n2)CC1` [Compound I-3, sodium (4-(4-((1-((1r,4r)-4-ethoxycyclohexyl)-3-(pyrimidin-2-yl)-1H-pyrazol-4-yl)carbamoyl)thiazol-2-yl)-1H-pyrazol-1-yl)methyl phosphate], the “Bioavailability (% F) of Compound I-3” value is 12 % F in data set [4], 53 % F in data set [5], 34 % F in data set [6] and 71 % F in data set [7]. Besides, the pEC50 in data set [1] is 6.89; in data set [2] it was 7.21; in data set [3] (THP-1, 18 h), 7.26.

A word on the pEC50: it is the negative decadic logarithm of the EC50, by convention in mol/L.
